Laboratory results from paper PMC12603070, “A high-throughput screening approach to discover potential colorectal cancer chemotherapeutics: repurposing drugs to identify novel disruptors of 14-3-3 proteins” (Cell Death & Disease, 2025).
Where two headings read alike, the source gives them in different places.

Assays:
[1] = target: T1, 14-3-3ζ:BAD-112-136F interactions (Homo sapiens, UniProt P63104); assay: BRET sensor screen for disruption of 14-3-3ζ-Rluc8:BAD-112-136F-mCitrine in living NIH-3T3 cells; type: cell-based, murine; set-up: inhibition: dose or concentration left out as unconfirmed; BRET reduction on NIH-3T3: unit not given here; conditions: for inhibition / BRET reduction on NIH-3T3: NIH-3T3 cells, hits from the primary screen; for inhibition / inhibition at 20 µM: read-out: BRET reduction on NIH-3T3
T1 construct: expressed in transfected cells; host or cells: NIH-3T3 fibroblasts, bi-directional pBI-CMV1 plasmid
T1 sequence (P63104 1-245): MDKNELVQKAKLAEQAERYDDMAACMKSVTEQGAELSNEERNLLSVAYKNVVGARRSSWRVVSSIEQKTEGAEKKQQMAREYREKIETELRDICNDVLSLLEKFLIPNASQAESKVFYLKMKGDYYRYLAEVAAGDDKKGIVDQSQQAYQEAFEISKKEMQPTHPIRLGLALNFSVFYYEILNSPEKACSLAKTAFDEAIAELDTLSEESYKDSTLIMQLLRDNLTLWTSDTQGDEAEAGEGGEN
Outline: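 NIH-3T3 cells were transfected with the BRET sensor two days beforehand, then replated on poly-L-ornithine-coated plates and grown 24 h at 37 °C. Medium was then replaced with Krebs buffer (pH 7.4). Z′-score was calculated to judge HTS robustness.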

Caco-2 cells = type: cell-based; conditions: for Percentage of cell death % 24h CACO-2: 20 µM; for Percentage of cell death % 48h, Caco-2: 20 μM
From the text: (§1) A high-content imaging system (PerkinElmer; Operetta CLS), was used to quantify cell death and apoptosis by calculating the number of propidium iodide-positive cells relative to Hoechst-positive cells, and the number of Annexin V-positive cells relative to Hoechst-positive cells, respectively.

NIH-3T3 cells = assay: Hoechst/propidium iodide cell death assay in NIH-3T3; type: cell-based; conditions: for cytotoxicity at 20 µM: Mus musculus, NIH3T3, 24 h, read-out: Percentage of cell death % 24h NIH3t3
From the text: as §1

HT-29 cells = assay: Hoechst/propidium iodide cell death assay in HT-29; type: cell-based, human; conditions: for cytotoxicity at 20 µM: Homo sapiens; for %Cell death HT-29: time not given
From the text: as §1

[2] = NIH3T3, 3 h, NIH-3T3 expressing BRET sensor, 20 µM, 3 h
[3] = HT-29, 24 h, 20 µM, 24 h, read-out: Percentage of cell death % 24h HT-29
[4] = HT-29, 48 h, HT-29, 48h, 20 μM, read-out: Percentage of cell death % 48h, HT-29
[5] = HT-29, 24 h, read-out: Percentage of cell death % 24h HT-29
[6] = HT-29, 48 h, read-out: Percentage of cell death % 48h, HT-29

Structure (SMILES)	inhibition ([1]; NIH3T3, 3 h)	inhibition at 20 µM [1, 2]	Percentage of cell death % 24h CACO-2 (Caco-2 cells)	Percentage of cell death % 48h, Caco-2 (Caco-2 cells)	cytotoxicity at 20 µM (NIH-3T3 cells; 20 µM, 24 h)	Percentage of cell death % 48h, NIH3T3 (NIH-3T3 cells)	cytotoxicity at 20 µM (HT-29 cells; [3])	cytotoxicity at 20 µM (HT-29 cells; [4])	inhibition at 20 µM ([1]; NIH3T3, NIH-3T3 expressing BRET sensor, 20 µM, 3 h)	BRET reduction on NIH-3T3 [1]	cytotoxicity at 20 µM (NIH-3T3 cells)	cytotoxicity at 20 µM (HT-29 cells; [5])	cytotoxicity at 20 µM (HT-29 cells; [6])	inhibition at 20 µM ([1]; NIH3T3, 3 h)	%Cell death Caco-2 (Caco-2 cells)	%Cell death HT-29 (HT-29 cells; HT-29)
Clc1ccc(C(Cn2ccnc2)OCc2c(Cl)cccc2Cl)c(Cl)c1 (centres unmarked) [Isoconazole nitrate]	45.1%	45.1%	5.943%	5.407%	8.57%	4.218%	1.88%	3.88%								
Cc1ccc(C(=O)N(CCCN)[C@@H](c2nc3cc(Cl)ccc3c(=O)n2Cc2ccccc2)C(C)C)cc1 [Ispinesib (SB-715992), Ispinesib]			86.1725%	89.1796%		78.7121%			44.1%	44.0919	87.5%	50.8%	86.7%			
CC(C)(C)c1cc(C(C)(C)C)c(NC(=O)c2c[nH]c3ccccc3c2=O)cc1O [Ivacaftor (VX-770), Ivacaftor]	39%	39%	14.0443%	14.6425%	7.87%	12.0089%	9.35%	60.7%								
Cc1cc(Nc2cc(CN3CCOCC3)c3nc(C)c(Cc4ccc(Cl)cc4F)n3n2)n[nH]1 [LY2784544]	36.5%	36.5%	12.6848%	17.5299%	62.8%	50.4683%	6.62%	55.6%								
CCOC(=O)C1=C(C)NC(C)=C(C(=O)OCC)C1c1ccccc1/C=C/C(=O)OC(C)(C)C [Lacidipine]	27.1%	27.1%	4.66%	4.938%	0.275%	0.2227%	1.94%	2.6%								
CC(C)OC(=O)CCC/C=C\C[C@@H]1[C@@H](CC[C@@H](O)CCc2ccccc2)[C@H](O)C[C@@H]1O [Latanoprost]	29.5%	29.5%	2.638%	2.117%	1.31%	0.6511%	0.702%	1.45%								
C[C@H](CCC(=O)O)[C@H]1CC[C@H]2[C@@H]3CC[C@@H]4C[C@H](O)CC[C@]4(C)[C@H]3CC[C@]12C [Lithocholic Acid]	40.1%	40.1%	2.024%	1.756%	2.68%	0.3149%	0.614%	2.06%								
CCOC(=O)N1CCC(=C2c3ccc(Cl)cc3CCc3cccnc32)CC1 [Loratadine]	25.5%	25.5%	3.76%	3.356%	9.83%	16.5359%	0.925%	3.3%								
C=C[C@@H]1C[C@]1(NC(=O)[C@@H]1C[C@@H]2CN1C(=O)[C@H](C(C)(C)C)NC(=O)O[C@@H]1C[C@H]1CCCCCc1nc3ccc(OC)cc3nc1O2)C(=O)NS(=O)(=O)C1CC1 [MK-5172]	33.9%	33.9%	2.115%	2.005%	0.421%	0.3254%	0.694%	2.55%								
C=CCc1ccc(O)c(-c2cc(CC=C)ccc2O)c1 [Magnolol]			16.7853%	10.8986%		6.55%				33.2336	15.7%	15.8%	20.3%	33.2%		
CO/N=C1\C[C@]2(C[C@@H]3C[C@@H](C/C=C(\C)C[C@@H](C)/C=C/C=C4\CO[C@@H]5[C@H](O)C(C)=C[C@@H](C(=O)O3)[C@]45O)O2)O[C@H](/C(C)=C/C(C)C)[C@H]1C [Moxidectin]	44%	44%			80.7%	68.7026%	8.61%	78.4%							8.4%	78.4%
OC(CNCC(O)C1CCc2cc(F)ccc2O1)C1CCc2cc(F)ccc2O1 (centres unmarked) [Nebivolol]	34.7%	34.7%			64.6%	64.5697%	9.8%	67.3%							45.0%	67.3%
CN(C(=O)CN(CCO)CC(=O)N(C)C(C)(C)Cc1ccccc1)C(C)(C)Cc1ccccc1 [Oxethazaine]	28.9%	28.9%			28.2%	9.9556%	3.21%	53.1%							13.9%	53.1%
CC(C)Oc1ccc(-c2nc(-c3cccc4c3CC[C@@H]4NCCO)no2)cc1C#N [Ozanimod (RPC1063), Ozanimod]	29.4%	29.4%	10.8525%	17.0415%	89.9%	87.9452%	1.29%	3.92%								
O=c1[nH]c2ccccc2n1C1CCN(CCCC(c2ccc(F)cc2)c2ccc(F)cc2)CC1 [Pimozide]					65.9%	78.5926%	11%	64.6%		38.4171				38.4%	59.9%	64.6%
Cc1ccc(C(=O)Nc2ccc(CN3CCN(C)CC3)c(C(F)(F)F)c2)cc1C#Cc1cnc2cccnn12 [Ponatinib (AP24534), Ponatinib]			28.4678%	42.5244%		54.2208%				44.6783	73.5%	56.7%	83.2%	44.7%		
